Experimental data: US20260373119A1, “NOVEL COMPOUND, AND COMPOSITION FOR PREVENTING OR TREATING HER2-POSITIVE CANCER, COMPRISING SAME” (EWHA UNIVERSITY - INDUSTRY COLLABORATION FOUNDATION, priority 2022, published 2026)

Assays:
[1] = tested on: HeLa (HER2-negative cervical cancer cell line); test: antiproliferative effect, HeLa; type: cell-based; settings: Homo sapiens, 72 hours
Procedure: The antiproliferative effects were measured after treating Compounds 1 to 22 for 72 hours on HCT15 (HER2-positive colorectal cancer cell line), NCI-N87 (HER2-positive gastric cancer cell line), T47D (HER2-negative breast cancer cell line), and HeLa (HER2-negative cervical cancer cell line). As a result, strong antiproliferative effects were generally observed in the NCI-N87 cell line (Table 2).
The antiproliferative effects of the candidate compound, resulting from HER2 inhibition, were evaluated. Specifically, to confirm the anticancer effects of the candidate compound, cancer cells were seeded at a density of 10^4 cells/well in a 96-well cell culture plate for 20 hours. The cells were starved in serum-free media for 4 hours, followed by replacement with media containing the compound at specified concentrations. The cells were then incubated for 72 hours under conditions of 5% CO2 at 37 °C. Cell viability was determined by adding 5 μL of EZ-CytoX to each well and measuring absorbance at 450 nm. The measurements were performed using an ELISA Microplate Reader (VersaMax, Molecular Devices).

MED23391-625 fragment = MED23391-625 fragment (Homo sapiens, UniProt Q9ULK4); test: LC-MS/MS protein-small molecule interaction, MED23 fragments; type: binding
Sequence of MED23391-625 fragment (Q9ULK4 391-625): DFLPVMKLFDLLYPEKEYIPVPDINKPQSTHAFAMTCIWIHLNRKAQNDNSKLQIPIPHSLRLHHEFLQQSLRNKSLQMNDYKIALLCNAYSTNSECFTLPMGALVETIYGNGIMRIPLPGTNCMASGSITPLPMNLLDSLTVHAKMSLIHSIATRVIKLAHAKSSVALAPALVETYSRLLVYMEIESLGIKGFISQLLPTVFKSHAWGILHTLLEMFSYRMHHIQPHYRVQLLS

ErbB4 = ErbB4 (Homo sapiens, UniProt Q15303); test: kinase profiling, ErbB4; type: biochemical; settings: read-out: In vitro kinase inhibitory activity (%)
Sequence of ErbB4 (Q15303 26-1308): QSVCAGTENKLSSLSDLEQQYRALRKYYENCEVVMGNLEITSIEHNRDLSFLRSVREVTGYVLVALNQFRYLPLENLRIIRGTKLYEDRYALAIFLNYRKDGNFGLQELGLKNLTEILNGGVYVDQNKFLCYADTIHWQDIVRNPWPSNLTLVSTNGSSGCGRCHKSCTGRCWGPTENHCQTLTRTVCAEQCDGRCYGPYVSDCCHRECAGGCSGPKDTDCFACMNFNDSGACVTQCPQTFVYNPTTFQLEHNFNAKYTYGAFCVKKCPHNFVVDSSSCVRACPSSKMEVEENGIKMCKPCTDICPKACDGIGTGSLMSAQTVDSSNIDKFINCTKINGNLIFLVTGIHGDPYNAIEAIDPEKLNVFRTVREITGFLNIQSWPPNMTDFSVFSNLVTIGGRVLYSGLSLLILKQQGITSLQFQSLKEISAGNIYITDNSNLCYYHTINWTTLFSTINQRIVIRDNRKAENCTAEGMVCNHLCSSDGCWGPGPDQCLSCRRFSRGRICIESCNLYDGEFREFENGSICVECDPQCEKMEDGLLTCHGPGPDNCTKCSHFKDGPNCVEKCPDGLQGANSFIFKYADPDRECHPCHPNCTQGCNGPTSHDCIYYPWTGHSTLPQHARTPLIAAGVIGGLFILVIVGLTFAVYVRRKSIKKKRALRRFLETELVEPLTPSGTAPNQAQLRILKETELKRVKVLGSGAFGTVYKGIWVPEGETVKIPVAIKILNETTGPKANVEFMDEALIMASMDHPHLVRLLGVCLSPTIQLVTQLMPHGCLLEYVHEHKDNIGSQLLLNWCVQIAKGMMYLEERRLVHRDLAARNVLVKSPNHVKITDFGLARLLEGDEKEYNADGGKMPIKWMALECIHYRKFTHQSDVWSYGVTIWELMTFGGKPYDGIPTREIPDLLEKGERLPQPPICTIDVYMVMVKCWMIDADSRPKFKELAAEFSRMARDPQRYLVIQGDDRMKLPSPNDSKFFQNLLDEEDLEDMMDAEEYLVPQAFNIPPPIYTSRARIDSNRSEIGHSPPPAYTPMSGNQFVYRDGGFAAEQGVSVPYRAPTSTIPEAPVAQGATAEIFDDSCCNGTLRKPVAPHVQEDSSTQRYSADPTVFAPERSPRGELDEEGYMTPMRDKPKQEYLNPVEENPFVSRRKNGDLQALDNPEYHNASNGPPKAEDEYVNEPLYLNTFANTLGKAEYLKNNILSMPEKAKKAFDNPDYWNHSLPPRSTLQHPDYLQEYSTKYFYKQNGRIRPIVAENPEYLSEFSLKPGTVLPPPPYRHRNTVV
Procedure: Kinase inhibitory activity of the candidate compound at 10 μM and 25 μM was assessed using Eurofins Kinase Profiling Services. Inhibitory effects on c-RAF, EGFR, ErbB2, ErbB4, and PI3 kinase were analyzed according to the Kinase Profiler Service Assay protocol.

NCI-N87 cells = test: cell cycle analysis (FACS); type: cell-based
Procedure: Specifically, 5×10^5 NCI-N87 cells were seeded in 60 mm dishes and cultured until they reached 70-80% confluence. The cells were treated with varying concentrations of the candidate compound and cultured for 8 hours. The cells were treated with trypsin and then washed with cold PBS (pH 7.4). For cell cycle analysis, the cells were fixed with 70% ethanol and cultured at 4 °C for 30 minutes, followed by staining with FxCycle™ PI/RNase staining solution (Invitrogen™, USA). Cell cycle analysis was performed using a fluorescence-activated cell sorting (FACS) device (BD Biosciences, USA).

TZMB-resistant cells = test: clonal analysis; type: cell-based; settings: 14 days; TZMB 10 or 20 μg/mL, YK1 0.5 or 1 μM
Procedure: To validate the above results, clonal analysis was performed. […] The incubated cells were fixed with 100% methanol for 1 hour and then stained with 200 μL of crystal violet solution per well. After washing the cells with tap water, images were captured using a ChemiDoc bio-image analyzer (Bio-Rad), and quantification was performed with ImageJ software (NIH, Bethesda, MD, USA). All processes following the fixation were conducted at room temperature.

## CC(=O)N1N=C(c2cccc(O)c2)CC1c1ccc(Cl)cc1 (stereo not shown) [Compound 15, 1-[5-(4-Chlorophenyl)-3-(3-hydroxyphenyl)-4,5-dihydropyrazol-1-yl]-ethanone]
[1]
  IC50: 16.92 ± 0.1 µM
MED23391-625 fragment
  interaction with MED23 fragments: specifically interacted with the MED23391-625 fragment
ErbB4; ErbB4, 10 μM
  inhibition at 10 µM: 0%
ErbB4; ErbB4, 25 μM
  inhibition at 25 µM: 0%
NCI-N87 cells
  G1 arrest, S and G2/M phases: promoted overall G1 arrest, accompanied by a decrease in the S and G2/M phases
NCI-N87 cells; time- and dose-dependent
  G1 cell fraction: significant increase in the G1 cell fraction
TZMB-resistant cells
  effect against TZMB resistance in clonal analysis: effective against TZMB resistance
